Structures are written as SMILES. Several values for one entry are separate records, joined by “and”; a condition that tells them apart may be missing. Equal entries are not always repeated. Where two headings read alike, the source gives them in different places.

From paper PMC6199744, “Development of Chemical Proteomics for the Folateome and Analysis of the Kinetoplastid Folateome” (ACS Infectious Diseases, 2018) come the findings set out here.

Assay type in all cases: binding
Assay [1] deals with T1, HeLa cell extract proteins (Homo sapiens, UniProt P49588).
T1 construct: endogenous in cells; host or cells: HeLa cell extract
T1 sequence (P49588 1-968): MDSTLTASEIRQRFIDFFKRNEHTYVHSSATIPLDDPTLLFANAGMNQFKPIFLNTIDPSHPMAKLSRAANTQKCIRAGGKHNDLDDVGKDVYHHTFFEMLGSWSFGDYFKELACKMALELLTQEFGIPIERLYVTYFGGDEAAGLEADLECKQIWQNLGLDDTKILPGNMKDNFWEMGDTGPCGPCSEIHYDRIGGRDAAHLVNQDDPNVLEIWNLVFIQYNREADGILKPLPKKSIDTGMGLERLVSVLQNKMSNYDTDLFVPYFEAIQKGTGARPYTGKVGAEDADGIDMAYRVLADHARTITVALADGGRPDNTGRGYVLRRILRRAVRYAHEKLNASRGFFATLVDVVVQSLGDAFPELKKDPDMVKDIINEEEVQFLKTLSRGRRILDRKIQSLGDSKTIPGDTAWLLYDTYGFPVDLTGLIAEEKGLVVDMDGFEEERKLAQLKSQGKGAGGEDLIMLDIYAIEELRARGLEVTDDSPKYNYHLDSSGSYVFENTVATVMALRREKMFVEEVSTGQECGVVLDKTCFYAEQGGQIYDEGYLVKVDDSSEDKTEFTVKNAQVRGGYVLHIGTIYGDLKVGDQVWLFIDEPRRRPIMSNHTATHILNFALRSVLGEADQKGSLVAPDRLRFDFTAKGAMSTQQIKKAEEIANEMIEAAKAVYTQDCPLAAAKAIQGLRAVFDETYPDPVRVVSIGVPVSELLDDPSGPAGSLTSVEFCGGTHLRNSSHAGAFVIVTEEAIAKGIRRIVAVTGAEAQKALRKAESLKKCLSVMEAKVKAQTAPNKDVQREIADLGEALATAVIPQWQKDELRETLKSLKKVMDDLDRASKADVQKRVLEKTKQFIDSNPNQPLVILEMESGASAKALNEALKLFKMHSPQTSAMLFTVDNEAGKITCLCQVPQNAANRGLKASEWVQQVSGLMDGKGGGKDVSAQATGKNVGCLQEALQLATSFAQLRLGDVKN

Assay [2] addresses T2, HeLa cell extract proteins (Homo sapiens, UniProt O00743).
T2 construct: endogenous in cells; host or cells: HeLa cell extract
T2 sequence (O00743 1-305): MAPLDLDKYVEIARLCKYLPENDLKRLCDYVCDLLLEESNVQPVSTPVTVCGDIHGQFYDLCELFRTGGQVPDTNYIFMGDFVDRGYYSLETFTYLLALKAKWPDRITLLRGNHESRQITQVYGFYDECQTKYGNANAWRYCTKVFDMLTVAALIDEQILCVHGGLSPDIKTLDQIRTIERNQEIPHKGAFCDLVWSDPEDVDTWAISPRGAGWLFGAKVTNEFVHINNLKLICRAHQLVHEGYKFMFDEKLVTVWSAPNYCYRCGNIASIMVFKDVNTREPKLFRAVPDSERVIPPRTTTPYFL

For assay [3], the target named is T3, HeLa cell extract proteins (Homo sapiens, UniProt P55060).
T3 construct: endogenous in cells; host or cells: HeLa cell extract
T3 sequence (P55060 1-971): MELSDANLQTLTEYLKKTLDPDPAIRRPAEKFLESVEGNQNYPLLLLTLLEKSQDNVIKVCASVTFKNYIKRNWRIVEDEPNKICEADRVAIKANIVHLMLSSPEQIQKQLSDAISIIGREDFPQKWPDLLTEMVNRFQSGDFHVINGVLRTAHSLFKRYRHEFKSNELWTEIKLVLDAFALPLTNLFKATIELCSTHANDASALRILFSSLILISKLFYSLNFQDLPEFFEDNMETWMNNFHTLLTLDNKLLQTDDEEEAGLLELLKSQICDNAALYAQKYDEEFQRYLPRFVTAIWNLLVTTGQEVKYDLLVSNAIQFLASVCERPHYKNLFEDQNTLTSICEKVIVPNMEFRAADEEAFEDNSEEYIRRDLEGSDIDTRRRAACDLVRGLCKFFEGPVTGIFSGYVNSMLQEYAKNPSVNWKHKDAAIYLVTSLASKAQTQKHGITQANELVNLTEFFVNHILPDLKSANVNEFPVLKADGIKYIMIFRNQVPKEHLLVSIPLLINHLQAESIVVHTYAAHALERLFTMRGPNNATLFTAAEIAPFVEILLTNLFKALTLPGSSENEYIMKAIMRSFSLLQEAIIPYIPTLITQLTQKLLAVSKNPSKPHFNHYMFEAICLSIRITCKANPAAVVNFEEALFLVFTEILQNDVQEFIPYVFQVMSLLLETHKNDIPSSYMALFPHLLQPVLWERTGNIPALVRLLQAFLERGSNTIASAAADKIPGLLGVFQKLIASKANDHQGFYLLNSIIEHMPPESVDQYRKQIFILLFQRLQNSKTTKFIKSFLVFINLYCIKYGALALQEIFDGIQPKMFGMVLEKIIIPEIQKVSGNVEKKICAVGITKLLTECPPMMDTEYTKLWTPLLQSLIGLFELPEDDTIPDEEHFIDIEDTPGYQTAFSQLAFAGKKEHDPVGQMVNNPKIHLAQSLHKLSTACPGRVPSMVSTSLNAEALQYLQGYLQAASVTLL

In assay [4] the target is T4, HeLa cell extract proteins (Homo sapiens, UniProt Q9NUI1).
T4 construct: endogenous in cells; host or cells: HeLa cell extract
T4 sequence (Q9NUI1 1-292): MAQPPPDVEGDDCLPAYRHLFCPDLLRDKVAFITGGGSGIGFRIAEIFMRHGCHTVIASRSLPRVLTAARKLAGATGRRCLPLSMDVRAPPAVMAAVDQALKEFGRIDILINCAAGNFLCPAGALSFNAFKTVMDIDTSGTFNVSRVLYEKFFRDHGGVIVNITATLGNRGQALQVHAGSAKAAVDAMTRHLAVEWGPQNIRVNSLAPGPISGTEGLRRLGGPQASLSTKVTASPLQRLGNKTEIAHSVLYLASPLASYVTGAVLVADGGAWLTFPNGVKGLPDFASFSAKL

Assay [5] deals with HeLa cell extract proteins.
Setting [6] is: HeLa, captured protein LOC442497.
Setting [7] is: HeLa, protein ABCB7 (ISOFORM 2 OF ATP-BINDING CASSETTE SUB-FAMILY B MEMBER 7, MIT[…]).
Where [8] appears, read: HeLa, protein ASAH1 (N-ACYLSPHINGOSINE AMIDOHYDROLASE (ACID CERAMIDASE) 1 ISOFORM B).
Setting [9] is: HeLa, protein GTPBP3 (ISOFORM 2 OF TRNA MO[…] GTPBP3, MIT[…]).
Setting [10] is: HeLa, protein MYL6 (ISOFORM SMOOTH MUSCLE OF MYOSIN LIGHT POLYPEPTIDE 6).
[11] abbreviates: HeLa, protein PSMA1 (ISOFORM LONG OF […] ALPHA TYPE 1).
Where [12] appears, read: HeLa, protein PSME1 ([…] SUBUNIT 1 ISOFORM 2).

On to `Nc1nc2cccc(-c3ccccc3)c2n1Cc1ccc(Cl)c(Cl)c1` [compound 3], for which the “fold changes relative to vehicle control” value in assay [1] (protein AARS, HeLa) is 0.95; in assay [2] (HeLa, protein PPP6C), 1.04; in assay [3] (protein CSE1L, HeLa) it was 1.06; in assay [4] (HeLa, protein DECR2), 0.99; in assay [5], 0.88 fold and 1 fold; in assay [5] (HeLa, protein A8MV93_HUMAN (SIMILAR TO CYTOCHROME C.)) it was 1.12 fold. In addition, the “fold changes relative to vehicle control” value in assay [5] (HeLa, protein CTNNA1 (ISOFORM 2 OF CATENIN ALPHA-1.)) worked out at 2.07 fold; in assay [5] (HeLa, protein LOC646960) it was 1.08; in assay [5] (HeLa, protein LOC654188 (SIMILAR TO PEPT[…] A-LIKE.)), 0.91 fold; in assay [5] (protein EIF1AP1, HeLa) it was 0.97; in assay [5] (protein LOC442497, HeLa) it was 1.03; in assay [5] (protein RPLP0-LIKE, HeLa), 1.04.
With `NCCOCCOCC(=O)Nc1nc2ncc(CNc3ccc(C(=O)NC(CCC(=O)O)C(=O)O)cc3)nc2c(=O)[nH]1` (stereo not drawn) [compound 6], the “fold changes relative to vehicle control” value in assay [1] (HeLa, protein AARS) was 1.28; in assay [2] (HeLa, protein PPP6C), 1.05; in assay [3] (protein CSE1L, HeLa), 1.09; in assay [4] (HeLa, protein DECR2), 0.94; in assay [5] (HeLa, captured protein EIF1AP1), 1.27; in assay [5] (setting [6]) it was 1.13. Moreover, the “fold changes relative to vehicle control” value in assay [5] (setting [7]) was 1.25; in assay [5] (setting [8]), 1.17; in assay [5] (setting [9]), 1.03; in assay [5] (HeLa, protein LOC654188), 1.3; in assay [5] (setting [10]) it was 1.7; in assay [5] (HeLa, protein NME1-NME2) it was 1.27. In addition, the “fold changes relative to vehicle control” value in assay [5] (setting [11]) was found to be 1.05; in assay [5] (setting [12]) it was 1.04; in assay [5] (HeLa, protein RPLP0-LIKE) it was 0.88; in assay [5] (protein HIST2H2BA, HeLa), 1.03; in assay [5] (protein LOC646960, HeLa), 1.05.
`Nc1nc2[nH]cc(CCc3ccc(C(=O)N[C@@H](CCC(=O)O)C(=O)O)cc3)c2c(=O)[nH]1` [PTX, pemetrexed]: the “fold changes relative to vehicle control” value in assay [1] was 1.1; in assay [2], 0.94; in assay [3], 0.88; in assay [4], 0.89; in assay [5] (HeLa, captured protein EIF1AP1) it was 0.95; in assay [5] (setting [6]), 1.08. The “fold changes relative to vehicle control” value in assay [5] (setting [7]) worked out at 1.19; in assay [5] (setting [8]) it was 1.19; in assay [5] (setting [9]), 0.49; in assay [5] (HeLa, protein LOC654188) it was 1.12; in assay [5] (setting [10]), 1.4; in assay [5] (HeLa, protein NME1-NME2), 1.08. Moreover, the “fold changes relative to vehicle control” value in assay [5] (setting [11]) is on record as 1.09; in assay [5] (setting [12]), 1; in assay [5] (HeLa, protein RPLP0-LIKE) it was 0.92; in assay [5] (protein HIST2H2BA, HeLa) it was 0.94; in assay [5] (protein LOC646960, HeLa), 0.95.
As to `Nc1nc2c(c(=O)[nH]1)N(C=O)C(CNc1ccc(C(=O)N[C@@H](CCC(=O)O)C(=O)O)cc1)CN2` (stereo partly drawn) [LEU, leucovorin], the “fold changes relative to vehicle control” value was found to be 1.02 in assay [1] (HeLa, protein AARS); 0.99 in assay [2] (HeLa, protein PPP6C); 0.94 in assay [3] (protein CSE1L, HeLa); 1.02 in assay [4] (HeLa, protein DECR2); 0.99 in assay [5] (HeLa, captured protein EIF1AP1); 1.06 in assay [5] (setting [6]). Also, the “fold changes relative to vehicle control” value in assay [5] (setting [7]) is on record as 1.18; in assay [5] (setting [8]), 1.17; in assay [5] (HeLa, protein GTPBP3 (ISOFORM 2 OF TRNA MODIFICATION GTPASE GTPBP3, MITOCHONDRIAL PRECURSOR)), 0.27; in assay [5] (HeLa, protein LOC654188), 0.98; in assay [5] (setting [10]), 1.06; in assay [5] (HeLa, protein NME1-NME2), 0.99. In addition, the “fold changes relative to vehicle control” value in assay [5] (setting [11]) was found to be 1.18; in assay [5] (setting [12]), 1.03; in assay [5] (HeLa, protein RPLP0-LIKE), 0.86; in assay [5] (protein HIST2H2BA, HeLa), 0.92; in assay [5] (protein LOC646960, HeLa), 0.84.
